From patent US20230131899A1, “INHIBITORS OF MICROBIALLY INDUCED AMYLOID” (Axial Therapeutics, Inc., priority 2020, published 2023)
Like-named read-outs stand apart in the source and are kept apart here.

Molecular target: T1, E. coli CsgA (Escherichia coli, UniProt P28307)
T1 construct: made in house; host or cells: E. coli NEB 3016 slyD::kan, pET11d
Test: In vitro ThioflavinT assay of CsgA aggregation (CsgA ThT Assay)
Format: biochemical
Conditions: 1005 minutes; for remaining activity at 25 µM: compound 25 μM; for remaining activity at 100 µM: compound 100 μM
Summary of the method: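 Purified C-terminal His-tagged CsgA, monomerised by desalting and 30-kDa filtration, at 2-20 μM with 20-40 μM ThT in 50 mM potassium phosphate pH 7.3, 1% DMSO, compounds 3.125-200 uM; room temperature, fluorescence (ex 438/em 495 nm) read every 15 min. Background-subtracted signal expressed as percent inhibition versus vehicle at 6-6.5 or 8-9 h, or as percent control AUC.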

[1] = read-out: CsgA ThT Assay (10 μM CsgA) % Control AUC at 1005 minutes, 25 μM (activity range), CsgA 10 μM, black plates, class symbol
[2] = read-out: CsgA ThT Assay (10 μM CsgA) % Control AUC at 1005 minutes, 25 μM, mean AUC as % of DMSO control, CsgA 10 μM, black plates
[3] = read-out: CsgA ThT Assay (10 μM CsgA) % Control AUC at 1005 minutes, 100 μM (activity range), CsgA 10 μM, black plates, class symbol
[4] = read-out: CsgA ThT Assay (10 μM CsgA) % Control AUC at 1005 minutes, 100 μM, mean AUC as % of DMSO control, CsgA 10 μM, black plates

T1 sequence (P28307 23-151): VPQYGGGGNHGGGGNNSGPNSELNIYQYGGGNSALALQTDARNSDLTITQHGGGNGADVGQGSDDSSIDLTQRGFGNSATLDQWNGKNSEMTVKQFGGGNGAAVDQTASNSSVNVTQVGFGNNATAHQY

| Structure (SMILES) | remaining activity at 25 µM [1] [%] | remaining activity at 25 µM [2] [%] | remaining activity at 100 µM [3] [%] | remaining activity at 100 µM [4] [%] |
| --- | --- | --- | --- | --- |
| CNC(=O)CCCN1CC(C(=O)O)n2c(c(-c3cccc(C(F)(F)F)c3)c(Cc3cccc4ccccc34)cc2=O)S1(=O)=O (stereo not drawn) [Compound 037, 2-(4-(methylamino)-4-oxobutyl)-8-(naphthalen-1-ylmethyl)-6-oxo-9-(3-(trifluoromethyl)phenyl)-3,4-dihydro-2H,6H-pyrido[1,2-e][1,2,5]thiadiazine-4-carboxylic acid 1,1-dioxide] | > 60 | 71 | 31 to 60 | 53 |
| CNC(=O)CCCCN1CC(C(=O)O)n2c(c(-c3cccc(C(F)(F)F)c3)c(Cc3cccc4ccccc34)cc2=O)S1(=O)=O (stereo not drawn) [Compound 038, 2-(5-(methylamino)-5-oxopentyl)-8-(naphthalen-1-ylmethyl)-6-oxo-9-(3-(trifluoromethyl)phenyl)-3,4-dihydro-2H,6H-pyrido[1,2-e][1,2,5]thiadiazine-4-carboxylic acid 1,1-dioxide] | > 60 | 86 | 11 to 31 | 25 |
| Nc1c(Cc2ccc(N)c3ccccc23)c(-c2cccc(C(F)(F)F)c2)c2n(c1=O)C(C(=O)O)CNS2(=O)=O (stereo not drawn) [Compound 041] | > 60 | 75 | 11 to 31 | 27 |
| CC1(C(=O)O)CNS(=O)(=O)c2c(-c3cccc(C(F)(F)F)c3)c(Cc3cccc4ccccc34)cc(=O)n21 (stereo not drawn) [Compound 042, 4-methyl-8-(naphthalen-1-ylmethyl)-6-oxo-9-(3-(trifluoromethyl)phenyl)-3,4-dihydro-2H,6H-pyrido[1,2-e][1,2,5]thiadiazine-4-carboxylic acid 1,1-dioxide] | 31 to 60 | 52 | 11 to 31 | 18 |
| Cn1c(=O)c2c(nc(CCCCN3CC(C(=O)O)n4c(c(-c5cccc(C(F)(F)F)c5)c(Cc5cccc6ccccc56)cc4=O)S3(=O)=O)n2C)n(C)c1=O (stereo not drawn) [Compound 044, 8-(naphthalen-1-ylmethyl)-6-oxo-9-(3-(trifluoromethyl)phenyl)-2-(4-(1,3,7-trimethyl-2,6-dioxo-2,3,6,7-tetrahydro-1H-purin-8-yl)butyl)-3,4-dihydro-2H,6H-pyrido[1,2-e][1,2,5]thiadiazine-4-carboxylic acid 1,1-dioxide] | 31 to 60 | 55 | 31 to 60 | 42 |
| Cn1c(=O)c2c(nc(CCCCCN3CC(C(=O)O)n4c(c(-c5cccc(C(F)(F)F)c5)c(Cc5cccc6ccccc56)cc4=O)S3(=O)=O)n2C)n(C)c1=O (stereo not drawn) [Compound 045, 8-(naphthalen-1-ylmethyl)-6-oxo-9-(3-(trifluoromethyl)phenyl)-2-(5-(1,3,7-trimethyl-2,6-dioxo-2,3,6,7-tetrahydro-1H-purin-8-yl)pentyl)-3,4-dihydro-2H,6H-pyrido[1,2-e][1,2,5]thiadiazine-4-carboxylic acid 1,1-dioxide] | 31 to 60 | 59 | 31 to 60 | 53 |
| Cn1c(=O)c2c(nc(CCCCCCN3CC(C(=O)O)n4c(c(-c5cccc(C(F)(F)F)c5)c(Cc5cccc6ccccc56)cc4=O)S3(=O)=O)n2C)n(C)c1=O (stereo not drawn) [Compound 046, 8-(naphthalen-1-ylmethyl)-6-oxo-9-(3-(trifluoromethyl)phenyl)-2-(6-(1,3,7-trimethyl-2,6-dioxo-2,3,6,7-tetrahydro-1H-purin-8-yl)hexyl)-3,4-dihydro-2H,6H-pyrido[1,2-e][1,2,5]thiadiazine-4-carboxylic acid 1,1-dioxide] | 31 to 60 | 55 | 31 to 60 | 55 |
| Cn1c(=O)c2c(nc(CCCCCCCN3CC(C(=O)O)n4c(c(-c5cccc(C(F)(F)F)c5)c(Cc5cccc6ccccc56)cc4=O)S3(=O)=O)n2C)n(C)c1=O (stereo not drawn) [Compound 047, 8-(naphthalen-1-ylmethyl)-6-oxo-9-(3-(trifluoromethyl)phenyl)-2-(7-(1,3,7-trimethyl-2,6-dioxo-2,3,6,7-tetrahydro-1H-purin-8-yl)heptyl)-3,4-dihydro-2H,6H-pyrido[1,2-e][1,2,5]thiadiazine-4-carboxylic acid 1,1-dioxide] | 31 to 60 | 55 | > 60 | 71 |
| O=C(O)c1c(-c2ccccc2)sc2c(-c3cccc(C(F)(F)F)c3)c(Cc3cccc4ccccc34)cc(=O)n12 [Compound 051, 7-(naphthalen-1-ylmethyl)-5-oxo-2-phenyl-8-(3-(trifluoromethyl)phenyl)-5H-thiazolo[3,2-a]pyridine-3-carboxylic acid] | > 60 | 81 | 31 to 60 | 54 |
| O=C(O)C1n2c(c(-c3cccc(C(F)(F)F)c3)c(Cc3cccc4ccccc34)nc2=O)SC12CCCC2 (stereo not drawn) [Compound 053, 7′-(naphthalen-1-ylmethyl)-5′-oxo-8′-(3-(trifluoromethyl)phenyl)-3′H,5′H-spiro[cyclopentane-1,2′-thiazolo[3,2-c]pyrimidine]-3′-carboxylic acid] | 31 to 60 | 39 | 11 to 31 | 12 |
| O=C(O)C1CSc2c(-c3cccc(C(F)(F)F)c3)c(Cc3cccc4ccccc34)cc(=S)n21 (stereo not drawn) [Compound 054, 7-(naphthalen-1-ylmethyl)-5-thioxo-8-(3-(trifluoromethyl)phenyl)-2,3-dihydro-5H-thiazolo[3,2-a]pyridine-3-carboxylic acid] | 31 to 60 | 44 | 31 to 60 | 50 |
| O=C(O)C1CN(CCCO)S(=O)(=O)c2c(-c3cccc(C(F)(F)F)c3)c(Cc3cccc4ccccc34)cc(=O)n21 (stereo not drawn) [Compound 056, 2-(3-hydroxypropyl)-8-(naphthalen-1-ylmethyl)-6-oxo-9-(3-(trifluoromethyl)phenyl)-3,4-dihydro-2H,6H-pyrido[1,2-e][1,2,5]thiadiazine-4-carboxylic acid 1,1-dioxide] | 31 to 60 | 38 | 31 to 60 | 34 |
| O=C(O)C1CSc2c(-c3cccc(C(F)(F)F)c3)c(Cc3cccc4ccccc34)c(CO)c(=O)n21 (stereo not drawn) [Compound 057, 6-(hydroxymethyl)-7-(naphthalen-1-ylmethyl)-5-oxo-8-(3-(trifluoromethyl)phenyl)-2,3-dihydro-5H-thiazolo[3,2-a]pyridine-3-carboxylic acid] | 31 to 60 | 59 | 11 to 31 | 24 |
| CC1(C)Sc2c(-c3cccc(C(F)(F)F)c3)c(Cc3cccc4ccccc34)nc(=O)n2C1C(=O)O (stereo not drawn) [Compound 059, 2,2-dimethyl-7-(naphthalen-1-ylmethyl)-5-oxo-8-(3-(trifluoromethyl)phenyl)-2,3-dihydro-5H-thiazolo[3,2-c]pyrimidine-3-carboxylic acid] | > 60 | 63 | 11 to 31 | 22 |
| O=C(O)c1c(CCc2ccccc2)sc2c(-c3cccc(C(F)(F)F)c3)c(Cc3cccc4ccccc34)cc(=O)n12 [Compound 062, 7-(naphthalen-1-ylmethyl)-5-oxo-2-phenethyl-8-(3-(trifluoromethyl)phenyl)-5H-thiazolo[3,2-a]pyridine-3-carboxylic acid] | > 60 | 77 | > 60 | 97 |
| O=C(O)C1COc2c(-c3cccc(C(F)(F)F)c3)c(Cc3cccc4ccccc34)cc(=O)n21 (stereo not drawn) [Compound 064, 7-(naphthalen-1-ylmethyl)-5-oxo-8-(3-(trifluoromethyl)phenyl)-2,3-dihydro-5H-oxazolo[3,2-a]pyridine-3-carboxylic acid] | 31 to 60 | 45 | 11 to 31 | 16 |
| O=C(O)C1CN(C[C@H](O)CO)S(=O)(=O)c2c(-c3cccc(C(F)(F)F)c3)c(Cc3cccc4ccccc34)cc(=O)n21 (stereo partly drawn) [Compound 065a, 2-((S)-2,3-dihydroxypropyl)-8-(naphthalen-1-ylmethyl)-6-oxo-9-(3-(trifluoromethyl)phenyl)-3,4-dihydro-2H,6H-pyrido[1,2-e][1,2,5]thiadiazine-4-carboxylic acid 1,1-dioxide] | > 60 | 65 | 11 to 31 | 18 |
| Cc1c(Cc2cccc3ccccc23)c(-c2cccc(C(F)(F)F)c2)c2n(c1=O)C(C(=O)O)CN(C)S2(=O)=O (stereo not drawn) [Compound 068, 2,7-dimethyl-8-(naphthalen-1-ylmethyl)-6-oxo-9-(3-(trifluoromethyl)phenyl)-3,4-dihydro-2H,6H-pyrido[1,2-e][1,2,5]thiadiazine-4-carboxylic acid 1,1-dioxide] | 31 to 60 | 43 | 11 to 31 | 23 |
